Measured values as given in patent US12427183B2, “Methods of treating cancer, infectious disease, and autoimmune disease using chemokines” (New York Society for the Relief of the Ruptured and …, priority 2016, dated 2025).
Entries after “also recorded” stand apart in the source; their conditions may differ.

Legend:
[1] = test system: PBMCs and pDC-depleted PBMCs; experiment: IFN-α production in PBMCs and pDC-depleted PBMCs cultured with CpG and chemokines (ELISA); type: cell-based, human; conditions: CpG 0.25 μM + chemokine 10 μg/ml
Description: PBMCs were prepared using Ficoll-Paque density gradient (GE Healthcare) as previously described (Guiducci et al., 2008).
pDCs were isolated from PBMCs by positive selection using BDCA4-MicroBead Kit as previously described (Guiducci et al., 2008). pDC-depleted PBMC were prepared by removing BDCA4-positive cells from PBMC using microbeads.
(§1) 5×10^5 PBMCs or pDC-depleted PBMCs were cultured in 96 wells plate and stimulated with 0.25 μM CpG DNA with or without 10 μg/ml CXCL4, CXCL10, CXCL12 or CCL5. Freshly isolated pDCs were resuspended at 5×10^4 cells/100 μl RPMI 1640 medium (Gibco) and stimulated with the 0.25 μM CpG with/without 10 μg/ml indicated chemokines. The supernatant was harvested after 18 h and IFN-α was measured by ELISA.
As shown above, CXCL4 can increase IFN-α production by TLR9-activated pDCs. Thus it was tested whether other chemokines may impact TLR9 signaling in pDCs. Purified pDCs were left unstimulated (Unstim.) or cultured with CpG (0.25 μM) alone or with the indicated chemokines at 10 μg/ml. IFN-α secretion was quantified by ELISA. Strikingly, it was observed that a set of chemokines, including CXCL4, CXL10, CXCL12 and CCL5, were able to superinduce TLR9-induced response by pDCs (FIG. 18A), while they had no effect when used alone (results not shown). […] This also raised questions as to the specificity and mechanism for this effect. First, as other DNA sensors have been described to induce IFN-α in immune cells (Barrat et al., 2016), it was tested to see if these chemokines altered the specificity of the CpGs for TLR9 and if the IFN-α response was restricted to pDCs. Total PBMCs or PBMCs where pDCs were depleted (PBMC-ΔpDCs) were incubated with CpGs and either CXCL4, CXCL10, CXCL12 or CCL5 and IFN-α production was quantified by ELISA.

[2] = test system: purified pDCs from HDs or SSc patients; experiment: IFN production by purified pDCs cultured with chemokine alone; type: cell-based, human; design: IFN production, CXCL4 alone: dose or concentration left out as unconfirmed
Description: PBMCs were prepared using Ficoll-Paque density gradient from fresh blood under internal Institutional Review Board-approved protocols. pDCs were isolated as previously described (Guiducci et al. 2008) using either using negative depletion (Miltenyi Biotech) or following cell sorting using a BD IFNLUX cell sorter. As part of the gating strategy, neutrophils were excluded by FSC/SSC and cells positive for CD14 (CD3 and CD19 as well) were first excluded in order to prevent the contamination by TLR8 positive cells and then positively gated on HLA-DR, CD123 and BDCA4 to purify the pDCs. All BDCA4+ cells also express BDCA2 (results not shown). As a result, pure pDCs were obtained and no markers for neutrophils (CD66) or myeloid cells were found by PCR. B cells were FACS sorted as CD19+ and monocytes as CD14+ cells. PBMCs were depleted of pDCs using BDCA4 beads from Miltenyi. pDCs were cultured at 10,000-30,000 cells per well in a 96-round bottom plate and incubated at 37° C., 5% CO2 and 95% humidity. After 24 hours of culture, the supernatant was collected for ELISA or Mutiplex cytokine assays. In some culture conditions, cells were cultured with the PI3Kδ inhibitor, CAL-101 (Selleck chemicals) for 24 hours. The RNA-based TLR8 agonist, ORN8-L previously described (Guidacci et al. 2013) was synthetized by Chemgenes Corporation. For the TLR8 activation assay, pDCs were incubated in complete media alone, 200 μg/ml ORN8-L in complete media or 200 μg/ml ORN8-L+ 10 μg/ml CXCL4 (R&D systems).
Supernatant from pDCs 24 hour culture was used for quantification of secreted chemokines and cytokines and measured with the use of an enzyme-linked immunosorbent assay (ELISA) or Luminex multiplex-beads immunoassay. CXCL4 ELISA (Ray Biotech) and IFNα, IP-10, IL-6, TNF Luminex assay (Millipore) was performed according to the manufacturer's protocol. Due to the variability in the number of cells obtained from the different patients and so we could compare the values across donors, all results were normalized to 10,000 cells. Of note, for all donors, pDCs were plated between 10,000-30,000 cells.
When purified pDCs from HDs or SSc patients were cultured with CXCL4 alone ([…]), there was no effect on IFN production.
as §1

CXCL4: small chemokine of the CXC family, 70-amino acid protein released from alpha-granules of activated platelets
IFN-α production in absence of the pDCs (PBMC-ΔpDCs versus total PBMCs) [1]: dramatic decrease | IFN-α secretion by pDCs, chemokine used alone ([2]; chemokine 10 μg/ml without CpG, results not shown): no effect | IFN production, CXCL4 alone ([2]; purified pDCs from HDs or SSc patients, CXCL4 alone): no effect; also recorded: did not induce
